These results are taken from patent US20260355196A1, “INHIBITORS AND DEGRADERS OF PIP4K PROTEIN” (Larkspur Biosciences, Inc., priority 2023, published 2026).

Molecules are shown by their SMILES.

This experiment concerns the target T1, PIP4K2C (Homo sapiens, UniProt Q8TBX8).
T1 sequence (Q8TBX8 1-421): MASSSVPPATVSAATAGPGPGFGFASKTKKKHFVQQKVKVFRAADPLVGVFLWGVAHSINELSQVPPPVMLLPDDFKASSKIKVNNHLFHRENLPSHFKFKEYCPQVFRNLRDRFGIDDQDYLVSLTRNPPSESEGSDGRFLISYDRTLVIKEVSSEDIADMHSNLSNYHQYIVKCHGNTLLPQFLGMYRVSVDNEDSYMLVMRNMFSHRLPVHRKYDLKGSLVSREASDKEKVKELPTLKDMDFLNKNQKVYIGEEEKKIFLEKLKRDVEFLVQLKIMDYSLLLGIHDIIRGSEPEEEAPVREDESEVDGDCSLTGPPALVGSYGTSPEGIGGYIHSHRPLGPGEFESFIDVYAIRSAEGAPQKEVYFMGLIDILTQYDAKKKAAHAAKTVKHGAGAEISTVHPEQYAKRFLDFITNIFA
Put plainly: Enzyme Binding Assay (KINOMEscan): active site-directed competition binding to an immobilized ligand. Also noted: purchased Eurofins DiscoverX, San Diego, CA 87-0007-1094. The settings on record: 11-point dose response, duplicate, top concentration 5 micromolar; read-out: Pip4k2c Kd: IC50. The gist of the method:
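Active site-directed competition binding against an immobilized ligand. 11-point dose-response in duplicate, top concentration 5 micromolar; IC50 from a Hill equation fitted by the Levenberg-Marquardt algorithm.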
The IC50 is the midpoint of a concentration-inhibition curve. As for `CC(=O)N1CCC(Nc2ncc(F)c(-c3cccc(-n4ccccc4=O)c3)n2)CC1` [Compound 614, 1-(3-(2-((1-acetylpiperidin-4-yl)amino)-5-fluoropyrimidin-4-yl)phenyl)pyridin-2(1H)-one], the IC50 was below 500 nM.
Under `CC(=O)N1CCC[C@H](Nc2ncc(Cl)c(-c3cccc(-n4ccccc4=O)c3)n2)C1` [Compound 129, (S)-1-(3-(2-((1-acetylpiperidin-3-yl)amino)-5-chloropyrimidin-4-yl)phenyl)pyridin-2(1H)-one] stands below 500 nM.
Under `CC(=O)N1CCCC(Nc2ncc(Cl)c(-c3ccc(F)cc3)n2)C1` (stereo not drawn) [Compound 26, 1-(3-((5-chloro-4-(4-fluorophenyl)pyrimidin-2-yl)amino)piperidin-1-yl)ethan-1-one] stands 500 to 1000 nM; under `CC(=O)N1CCC(Nc2ncc(F)c(-c3ccnc(N4CCOCC4=O)c3)n2)CC1` [Compound 628, 4-(4-(2-((1-acetylpiperidin-4-yl)amino)-5-fluoropyrimidin-4-yl)pyridin-2-yl)morpholin-3-one], below 500 nM.
Under `CC(=O)N[C@H]1CC[C@H](Nc2ncc(Cl)c(-c3cccc(-c4ccc[nH]c4=O)c3)n2)CC1` [Compound 154, trans-N-((1r,4r)-4-((5-chloro-4-(3-(2-oxo-1,2-dihydropyridin-3-yl)phenyl)pyrimidin-2-yl)amino)cyclohexyl)acetamide] stands below 500 nM; under `CC(=O)N[C@@H]1CCC[C@@H](Nc2ncc(Cl)c(-c3cccc(-c4ccccc4)c3)n2)C1` (relative stereo) [Compound 34, trans-N-(3-((4-([1,1′-biphenyl]-3-yl)-5-chloropyrimidin-2-yl)amino)cyclohexyl)acetamide], below 500 nM.
In the case of `CC(=O)N[C@H]1CC[C@H](Nc2ncc(F)c(-c3cccc(C4CCCN(C(C)=O)C4)c3)n2)CC1` (stereo partly drawn) [Compound 174, trans-N-(4-((4-(3-(1-acetylpiperidin-3-yl)phenyl)-5-fluoropyrimidin-2-yl)amino)cyclohexyl)acetamide], the concentration for half-maximal inhibition (IC50) is below 500 nM.
Under `NC(=O)[C@H]1CCC[C@@H](Nc2ncc(F)c(-c3cccc(C4(O)COC4)c3)n2)C1` (relative stereo) [Compound 173, cis-3-((5-fluoro-4-(3-(3-hydroxyoxetan-3-yl)phenyl)pyrimidin-2-yl)amino)cyclohexane-1-carboxamide] stands below 500 nM; under `CC(=O)N1CCC[C@H](Nc2ncc(Cl)c(-c3cccc(-c4ccc(F)cc4)n3)n2)C1` [Compound 194, (S)-1-(3-((5-chloro-4-(6-(4-fluorophenyl)pyridin-2-yl)pyrimidin-2-yl)amino)piperidin-1-yl)ethan-1-one], 1000 to 5000 nM.
Under `NC(=O)[C@@H]1CCC[C@H](Nc2ncc(F)c(-c3ccnc(C4(O)CCC4)c3)n2)C1` [Compound 244, (1R,3S)-3-((5-fluoro-4-(2-(1-hydroxycyclobutyl)pyridin-4-yl)pyrimidin-2-yl)amino)cyclohexane-1-carboxamide] stands below 500 nM.
Under `NC(=O)[C@H]1CCC[C@@H](Nc2ncc(Cl)c(-c3ccc(F)cc3)n2)C1` (relative stereo) [Compound 28, cis-3-((5-chloro-4-(4-fluorophenyl)pyrimidin-2-yl)amino)cyclohexane-1-carboxamide] stands 1000 to 5000 nM.
For `CC(=O)N1CCC(Nc2ncc(F)c(-c3cccc(N4CCOCC4)c3)n2)CC1` [Compound 606, 1-[4-[[5-fluoro-4-(3-morpholinophenyl)pyrimidin-2-yl]amino]-1-piperidyl]ethanone], the IC50 is below 500 nM.
The result for `CNC(=O)[C@H]1CC[C@H](Nc2ncc(Cl)c(-c3cccc(-n4ccccc4=O)c3)n2)CC1` [Compound 103, trans-(1r,4r)-4-((5-chloro-4-(3-(2-oxopyridin-1 (2H)-yl)phenyl)pyrimidin-2-yl)amino)-N-methylcyclohexane-1-carboxamide] reads below 500 nM.
As to `CC(=O)N1CCC(Nc2ncc(F)c(-c3cccc(N4CCC(O)C4=O)c3)n2)CC1` (stereo not drawn) [Compound 228, 1-(3-(2-((1-acetylpiperidin-4-yl)amino)-5-fluoropyrimidin-4-yl)phenyl)-3-hydroxypyrrolidin-2-one], the IC50 was below 500 nM.
The result for `CNC(=O)[C@H]1CC[C@H](Nc2ncc(Cl)c(-c3cccc(-c4ccc(F)cc4)c3)n2)CC1` [Compound 101, trans-(1r,4r)-4-((5-chloro-4-(4′-fluoro-[1,1′-biphenyl]-3-yl)pyrimidin-2-yl)amino)-N-methylcyclohexane-1-carboxamide] reads below 500 nM.
Turning to `NC(=O)[C@H]1CC[C@H](Nc2ncc(F)c(-c3cccc(-n4ccccc4=O)c3)n2)CC1` [Compound 240, trans-(1r,4r)-4-((5-fluoro-4-(3-(2-oxopyridin-1 (2H)-yl)phenyl)pyrimidin-2-yl)amino)cyclohexane-1-carboxamide], the IC50 was below 500 nM.
On to `NC(=O)[C@H]1CC[C@H](Nc2ncc(F)c(-c3cccc(-c4ccc[nH]c4=O)c3)n2)CC1` [Compound 254, trans-(1r,4r)-4-((5-fluoro-4-(3-(2-oxo-1,2-dihydropyridin-3-yl)phenyl)pyrimidin-2-yl)amino)cyclohexane-1-carboxamide], for which the IC50 was below 500 nM.
For `CC(=O)N[C@H]1CC[C@H](Nc2ncc(F)c(-c3cccc(C4(O)COC4)c3)n2)CC1` [Compound 176, N-(trans-4-((5-fluoro-4-(3-(3-hydroxyoxetan-3-yl)phenyl)pyrimidin-2-yl)amino)cyclohexyl)acetamide], the IC50 is below 500 nM.
Under `CN1CCC(C(=O)N2CCC(Nc3ncc(Cl)c(-c4cccc(-c5ccccc5)c4)n3)CC2)CC1` [Compound 3, (4-((4-([1,1′-biphenyl]-3-yl)-5-chloropyrimidin-2-yl)amino)piperidin-1-yl)(1-methylpiperidin-4-yl)methanone] stands below 500 nM; under `CC(=O)N1CCC[C@H](Nc2ncc(Cl)c(-c3ccc(=O)n(-c4ccc(F)cc4)c3)n2)C1` [Compound 143, (S)-5-(2-((1-acetylpiperidin-3-yl)amino)-5-chloropyrimidin-4-yl)-1-(4-fluorophenyl)pyridin-2(1H)-one], 500 to 1000 nM; under `NC(=O)[C@@H]1CCC[C@H](Nc2ncc(F)c(-c3cccc(N4CCOCC4=O)c3)n2)C1` (relative stereo) [Compound 269, cis-3-((5-fluoro-4-(3-(3-oxomorpholino)phenyl)pyrimidin-2-yl)amino)cyclohexane-1-carboxamide], below 500 nM.
Under `CC(=O)N1CCC(Nc2ncc(F)c(-c3cccc(N4C[C@H](O)CC4=O)c3)n2)CC1` [Compound 237, (4R)-1-[3-[2-[(1-acetyl-4-piperidyl)amino]-5-fluoro-pyrimidin-4-yl]phenyl]-4-hydroxy-pyrrolidin-2-one] stands below 500 nM; under `CC(=O)N[C@H]1CC[C@H](Nc2ncc(Cl)c(-c3cnn(C4CC4)c3)n2)CC1` [Compound 116, trans-N-((1r,4r)-4-((5-chloro-4-(1-cyclopropyl-1H-pyrazol-4-yl)pyrimidin-2-yl)amino)cyclohexyl)acetamide], below 500 nM.
In the case of `NC(=O)[C@H]1CC[C@H](Nc2ncc(F)c(-c3cccc(C4(O)COC4)c3)n2)CC1` [Compound 181, trans-4-((5-fluoro-4-(3-(3-hydroxyoxetan-3-yl)phenyl)pyrimidin-2-yl)amino)cyclohexane-1-carboxamide], the IC50 is below 500 nM.
